Holding throughout (assay): NCI-60 cell line screen, 48 h
The subject of assay [1] is OVCAR-8 ovarian.
The test system of assay [2] is OVCAR-3 ovarian.
Assay [3] has as its system M14 melanoma.
Assay [4] has as its system BT-549 breast.
Assay [5] has as its system CCRF-CEM leukemia.

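Five concentrations, 48 hours, 96-well plates. GI50 marks 50% less growth. TGI marks complete inhibition of growth.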

Consider `CC(C)COC(=O)c1ccc2[nH]c(O)c(C=Nc3ccc(S(N)(=O)=O)cc3)c2c1`, for which the GI50 in assay [1] was 1.04 µM; in assay [2], 0.802 µM; in assay [3], 1.25 µM; in assay [4], 1.65 µM; in assay [5], 0.823 µM. Besides, the TGI is 4.62 µM in assay [1]; 2.28 µM in assay [2]; 4.8 µM in assay [3]; 4 µM in assay [4]; 15.3 µM in assay [5].
Consider `COc1ccc(Nc2cc(C)nc(N3CCN(c4ccnc5cc(Cl)ccc45)CC3)n2)cc1`, for which the GI50 is 3.25 µM in assay [1]; 2.31 µM in assay [2]; 1.75 µM in assay [3]; 2.22 µM in assay [4]; 2.85 µM in assay [5]. Further, the TGI in assay [1] is over 100 µM; in assay [2], 6.15 µM; in assay [3] it was 5.32 µM; in assay [4], 8.06 µM; in assay [5], over 100 µM.
Consider `O=C1CC(c2ccc(Cl)cc2)Oc2ccccc21` (centres undefined), for which the TGI in assay [1] is over 100 µM; in assay [3], 58.4 µM; in assay [5], 37.4 µM.
Consider `CCCNc1nc2ccccc2c2c1S(=O)(=O)c1ccc(Cl)cc1C2=O`, for which the GI50 in assay [1] is 1.58 µM; in assay [2] it was 0.944 µM; in assay [3] it was 0.625 µM; in assay [4], 0.734 µM; in assay [5], 0.4 µM. Further, the TGI in assay [1] was over 50 µM; in assay [2] it was 3.1 µM; in assay [3], over 50 µM; in assay [4], over 50 µM; in assay [5] it was 3.98 µM.
With `C/C=C(\C)C(=O)N[C@H]1C(O)C[C@]2(C)C3CC[C@@]4(C)C(CC[C@@H]4C(C)N(C)C)C3CCC2C1O` (some centres undefined), the GI50 in assay [1] was 28.9 µM; in assay [2] it was 4.68 µM; in assay [3], 2.02 µM; in assay [4], 16.9 µM; in assay [5], 7.76 µM. Moreover, the TGI is over 90.8 µM in assay [1]; 19.5 µM in assay [2]; 3.88 µM in assay [3]; 51.9 µM in assay [4]; 75.8 µM in assay [5].
Turning to `NCCSCCc1ccccc1`, the TGI in assay [1], in assay [2], in assay [3] and in assay [4] was over 100 µM throughout.
Consider `c1ccc(CNc2nc(Nc3ccccc3)nc3ccccc23)cc1`, for which the GI50 in assay [1] is 1.99 µM; in assay [2] it was 1.77 µM; in assay [3], 1.83 µM; in assay [4], 1.9 µM; in assay [5] it was 2.13 µM. Further, the TGI in assay [1] amounted to 5.09 µM; in assay [2] it was 3.53 µM; in assay [3] it was 3.6 µM; in assay [4] it was 3.97 µM; in assay [5], 6 µM.
As for `ClCc1ccc(Cn2cnc3c(Cl)nc(Cl)nc32)cc1`, the GI50 in assay [1] was 20 µM; in assay [2] it was 1.99 µM; in assay [3], 10.8 µM; in assay [4], 15.8 µM; in assay [5] it was 1.94 µM. The TGI in assay [1] is 38.3 µM; in assay [2], 4.33 µM; in assay [3] it was 24.1 µM; in assay [4], 29.8 µM; in assay [5] it was 4.53 µM.
`CC1=C(/C=C/C(C)=C/C=C/C(C)=C/CO)C(C)(C)CCC1`: the TGI in assay [2] is 28.4 µM; in assay [3], 35.7 µM; in assay [5] it was 46.4 µM.
For `Cc1cccc(Nc2cnc(N)nc2N)c1`, the TGI in assay [1], in assay [2], in assay [3] and in assay [5] was over 100 µM in each case.
Turning to `COc1ccc(-c2nn(-c3cccc(NC(=O)c4ccc(N5CCOCC5)c(C(F)(F)F)c4)c3)cc2-c2ccncc2)cc1Cl`, the GI50 was 4.47 µM in assay [1], 4.54 µM in assay [3], 4.14 µM in assay [4] and 2.92 µM in assay [5]. Also, the TGI in assay [1] was over 50 µM; in assay [3] it was 38.1 µM; in assay [4], over 50 µM; in assay [5] it was over 50 µM.
For `Cc1cc2c(cc1N)C(C)C1(CCC(=O)N2Cc2ccccc2)OCCO1` (centres undefined), the TGI in assay [1], in assay [2], in assay [3] and in assay [4] was over 100 µM each time.
`COc1cc2c(c(OC3OC(CO)C(O)C(O)C3O)c1)C(=O)CC(c1ccc(O)cc1)O2` (centres undefined): the TGI in assay [1], in assay [2], in assay [3] and in assay [4] was over 100 µM throughout.
`COc1ccc(Nc2c3ccccc3nc3[nH]c4ccccc4c23)cc1`: the GI50 is 30.2 µM in assay [1], 19.4 µM in assay [2] and 13.7 µM in assay [4]. For the same molecule, the TGI in assay [1], in assay [2] and in assay [4] was over 50 µM throughout.
Consider `Oc1ccc(Cl)cc1CNc1nc2ccccc2[nH]1`, for which the GI50 in assay [1] is 12.9 µM; in assay [2], 12.7 µM; in assay [4], 9.05 µM; in assay [5], 17.9 µM. Besides, the TGI in assay [1] is 30.8 µM; in assay [2], 29 µM; in assay [4], 23.3 µM; in assay [5], 88.5 µM.

(Values after PubChem BioAssay (NCI).)
